Measured values as given in patent US20230165785A1, “METHOD FOR OBTAINING AN EXTRACT OF SANDALWOOD, COMPOSITIONS COMPRISING SAME AND COSMETIC USES THEREOF” (ISP INVESTMENTS LLC, priority 2020, published 2023).

Experiments:
filaggrin = assay: Filaggrin expression by indirect immunofluorescence on skin biopsies; format: cell-based, human; conditions: positive control, concentration not given
Protocol: Filaggrin is a protein involved in the cohesion and maintenance of the hydration of the upper layer of the epidermis, which is essential for maintaining the homeostasis of the skin barrier.
Filaggrin expression was assessed by indirect immunofluorescence on skin biopsies, pre-treated by topical application of the solubilised extract of depleted sandalwood from Example 1, diluted in 0.1% octyldodecanol (volume/volume percentages, twice daily), for 48 hours. In parallel, biopsies were treated with a sandalwood essential oil of Example 3 from the same geographical site and tested under the same conditions. Control biopsies incubated in parallel under the same conditions were given the placebo (octyldodecanol). After incubation, the biopsies were fixed and embedded in paraffin for histological sections. Detection of filaggrin was performed by incubation with anti-filaggrin antibody (Santa Cruz). After one and a half hours of incubation followed by rinses, the sections were incubated in the presence of the anti-mouse secondary antibody coupled to a fluorophore (Alexa Fluor® 488, Invitrogen). The sections were then examined under an Epi-fluorescence microscope (Zeiss Axiovert 200M microscope). Filaggrin expression was then observed and quantified by image analysis (Volocity® image analysis software, Improvision).

[1] = system: olfactory receptor OR2AT4; assay: OR2AT4 expression by indirect immunofluorescence on human skin biopsies; format: cell-based
Protocol: OR2AT4 expression was assessed by indirect immunofluorescence on skin biopsies, pre-treated by topical application of the solubilised extract of depleted sandalwood of Example 1 at 0.1%, 0.5% and 1% (volume/volume percentages), for 48 hours (twice daily). For this purpose, the solubilised extract of depleted sandalwood from Example 1 was diluted in 0.1%, 0.5% and 1% (volume/volume percentages) octyldodecanol. Other biopsies were given similar dilutions of sandalwood essential oil from Example 3 or a synthetic analogue Sandalore. Control biopsies incubated in parallel under the same conditions received placebo (octyldodecanol). After incubation, the biopsies were fixed and embedded in paraffin for histological sections. Detection of the OR2AT4 receptor was performed by incubation with anti-OR2AT4 antibody (Novus). After one and a half hours of incubation followed by rinses, the sections are incubated in the presence of the anti-rabbit secondary antibody coupled to a fluorophore (Alexa Fluor® 488, Invitrogen). The sections were then examined under an Epi-fluorescence microscope (Zeiss Axiovert 200M microscope). OR2AT4 expression was then observed and quantified by image analysis (Volocity® image analysis software, Improvision).

Compound	increase in filaggrin (filaggrin)	OR2AT4 expression increase ([1]; 1% (v/v) in octyldodecanol, topical, twice daily, 48 hours, vs placebo) [%]	OR2AT4 expression increase ([1]; 3% topical application) [%]	OR2AT4 expression increase ([1]; 5% topical application) [%]	effect on OR2AT4 expression ([1]; application of less than 1%)
O=C(O[C@@H]1Cc2c(O)cc(O)cc2O[C@@H]1c1cc(O)c(O)c(O)c1)c1cc(O)c(O)c(O)c1 [EGCG, epigallocatechin gallate]	+27%				
CC1=CCC(CCC(C)C(C)O)C1(C)C (centres unmarked) [Sandalore]		28	72	71	does not seem to have any effect
